Results on five compounds are retold here after US10479819B2 (priority 2014, dated 2019).

Usually Tmax stands for the time at which the peak concentration occurs. As a reminder, the half-life is the time in which the quantity being followed falls by half. What is called EC50 is the concentration needed to bring the measured effect to its halfway point.

One series has as its target T1, human GLP-1R (Homo sapiens, UniProt P43220).
T1 construct: expressed in transfected cells
Briefly: In vitro activity on GLP-1R, CRE-luciferase HEK-293 cells. The series is classed as cell-based. The note with it: for GLP-1R/GCGR: ratio of EC50 GLP-1R to EC50 GCGR. The method, then:
5000 of HEK-293 cells, which are used in CRE-luciferase system and express human GCGR or GLP-1R stably, were inoculated into 384 well plates according to […] DMEM/10% FBS media/well. […] After incubation, […] of luciferase reagent was added directly to each plate and mixed gently for 2 minutes. The plates were placed into an Elmer Perkin plate reader for reading. Concentration curve of the compound was made by drawing software Prism 5, and the EC50 value was calculated.

Series [1] can be described thus: Pharmacokinetic analysis after IV or SC administration in male CD1 mice. The conditions noted are these: for Tmax / half-life: iv. The protocol: Pharmacokinetic parameters of the drugs were calculated by methods of model dependence (for data obtained from IV) and model independence (data obtained from SC).
The next series relates to male C57B1/6J mice. In words: Oral glucose tolerance test in male C57B1/6J mice. The format is in vivo. The conditions noted are these: 250 μg/kg; for AUC of blood glucose in all four OGTT curve periods (0-480 min) compared with carrier (PBS): P<0.05; for effect on oral glucose tolerance: male C57B1/6J mice. The protocol: 12-16 week-old male C57B1/6J mice (Nanjing University model animal research center) were randomly divided into groups 8 in each group, according to similar blood glucose (assessed by the blood samples obtained from the tail tip). After fasting (for 6 hours), the animals were administrated, and about 4 hours later, initial blood samples (fasting blood glucose level) were taken. Subsequently, the animals were administrated with an oral dose of glucose, and then put back into their cages (t=0). Blood glucose was measured at t=15 minutes, t=30 minutes, t=60 minutes, t=90 minutes and t=120 minutes. And then the animals were administrated with an oral dose of glucose again, and blood glucose was tracked until 8 hours.

In another series the test system is DIO mice. In words: Body weight reduction in DIO (obese) mice. The series is classed as in vivo. The conditions noted are these: 250 μg/kg SC daily, day 11 to day 30, DIO mice. The source says:
Forty 25-week-old DIO mice (Nanjing University model animal research center) were randomly divided into five groups (compound 4, 5, 6, 7, and normal saline group), 8 in each group, having no difference in the basis weight of each group.

Starred links: 1 amine or outer side, 2 acyl side, 3 side chain; linkers in the order of their positions; H or OH if unused. Non-standard residues stand in square brackets, D forms with d. Residues, ends and D or L forms follow the SMILES beside them. Groups on a side chain read outwards from the residue. *: point of attachment. C18 diacid = O=C(O)CCCCCCCCCCCCCCCCC(=O)*; γGlu = O=C(O)[C@H](CCC(=O)[*:2])N[*:1]; PEG2 = NCCOCCOCCC(=O)O; Aib = CC(C)(N)C(=O)O

T1 sequence (P43220 24-463): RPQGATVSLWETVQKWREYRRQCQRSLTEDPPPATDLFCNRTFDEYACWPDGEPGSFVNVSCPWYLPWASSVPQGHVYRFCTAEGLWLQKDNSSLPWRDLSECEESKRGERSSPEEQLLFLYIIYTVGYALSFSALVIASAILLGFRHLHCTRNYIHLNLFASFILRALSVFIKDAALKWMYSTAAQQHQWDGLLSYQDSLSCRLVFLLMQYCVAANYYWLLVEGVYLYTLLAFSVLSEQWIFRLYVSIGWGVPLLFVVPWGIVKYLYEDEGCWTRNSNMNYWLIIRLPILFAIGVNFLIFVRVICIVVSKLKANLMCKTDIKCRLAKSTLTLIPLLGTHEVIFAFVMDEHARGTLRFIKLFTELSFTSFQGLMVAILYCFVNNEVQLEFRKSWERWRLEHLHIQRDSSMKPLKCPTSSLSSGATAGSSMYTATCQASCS

In the case of `CC(C)C[C@H](NC(=O)[C@H](CC(C)C)NC(=O)[C@H](Cc1c[nH]c2ccccc12)NC(=O)[C@H](CCC(N)=O)NC(=O)[C@@H](NC(=O)[C@H](Cc1ccccc1)NC(=O)[C@H](CC(=O)O)NC(=O)[C@H](CCC(N)=O)NC(=O)[C@H](C)NC(=O)[C@H](CCCNC(=N)N)NC(=O)[C@H](CCCNC(=N)N)NC(=O)[C@H](CCC(=O)O)NC(=O)[C@H](CC(=O)O)NC(=O)[C@H](CC(C)C)NC(=O)[C@H](Cc1ccc(O)cc1)NC(=O)[C@H](CCCCN)NC(=O)[C@H](CO)NC(=O)[C@H](CCCCNC(=O)CCOCCOCCNC(=O)CCOCCOCCNC(=O)CC[C@H](NC(=O)CCCCCCCCCCCCCCCCC(=O)O)C(=O)O)NC(=O)[C@H](CC(=O)O)NC(=O)[C@H](CO)NC(=O)[C@@H](NC(=O)[C@H](Cc1ccccc1)NC(=O)[C@@H](NC(=O)CNC(=O)[C@H](CCC(N)=O)NC(=O)C(C)(C)NC(=O)[C@@H](N)Cc1c[nH]cn1)[C@@H](C)O)[C@@H](C)O)C(C)C)C(=O)N[C@@H](CC(=O)O)C(=O)NCC(=O)NCC(=O)N1CCC[C@H]1C(=O)N[C@@H](CO)C(=O)N[C@@H](CO)C(=O)NCC(=O)N[C@@H](C)C(=O)N1CCC[C@H]1C(=O)N1CCC[C@H]1C(=O)N1CCC[C@H]1C(=O)N[C@@H](CO)C(N)=O` [Compound 20] (H-H[Aib]QGTFTSDK([PEG2-PEG2-γGlu-C18 diacid])SKYLDERRAQDFVQWLLDGGPSSGAPPPS-NH2), the GLP-1R/GCGR on human GLP-1R amounted to 0.18. In addition, the clinical adverse effect result in series [1] (IV or SC route, male CD1 mice) is given as “no clinical adverse effect”. Moreover, in series [1] (mouse, in vivo), the Tmax is around 12 h and the half-life was 4 to 6 h. In addition, in the series on male C57B1/6J mice, the “AUC of blood glucose in all four OGTT curve periods (0-480 min) compared with carrier (PBS)” value (shortened to “AUC … compared with carrier (PBS)”) is reported as “significantly decreased” and the “effect on oral glucose tolerance” value was “significantly reduced the oral glucose tolerance”.
For “His-Aib-Gln-Gly-Thr-Phe-Thr-Ser-Asp-Lys(PEG2-PEG2-Glu-CO(CH2)14CH3)-Ser-Lys-Tyr-Leu-Asp-Glu-Arg-Arg-Ala-Gln-Asp-Phe-Val-Gln-Trp-Leu-Leu-Asp-Gly-Gly-Pro-Ser-Ser-Gly-Ala-Pro-Pro-Pro-Ser-NH2 [Compound 19]”, the GLP-1R/GCGR on human GLP-1R came to 0.25. Besides, in the series on male C57B1/6J mice, the “AUC … compared with carrier (PBS)” value is “significantly decreased” and the “effect on oral glucose tolerance” value is given as “significantly reduced the oral glucose tolerance”.
For the compound `CC(C)C[C@H](NC(=O)[C@H](CC(C)C)NC(=O)[C@H](Cc1c[nH]c2ccccc12)NC(=O)[C@H](CCC(N)=O)NC(=O)[C@@H](NC(=O)[C@H](Cc1ccccc1)NC(=O)[C@H](CC(=O)O)NC(=O)[C@H](CCC(N)=O)NC(=O)[C@H](C)NC(=O)[C@H](CCCNC(=N)N)NC(=O)[C@H](CCCNC(=N)N)NC(=O)C(C)(C)NC(=O)[C@H](CC(=O)O)NC(=O)[C@H](CC(C)C)NC(=O)[C@H](Cc1ccc(O)cc1)NC(=O)[C@H](CCCCN)NC(=O)[C@H](CO)NC(=O)[C@H](CCCCNC(=O)CCOCCOCCNC(=O)CCOCCOCCNC(=O)CC[C@H](NC(=O)CCCCCCCCCCCCCCCCC(=O)O)C(=O)O)NC(=O)[C@H](CC(=O)O)NC(=O)[C@H](CO)NC(=O)[C@@H](NC(=O)[C@H](Cc1ccccc1)NC(=O)[C@@H](NC(=O)CNC(=O)[C@H](CCC(N)=O)NC(=O)C(C)(C)NC(=O)[C@@H](N)Cc1c[nH]cn1)[C@@H](C)O)[C@@H](C)O)C(C)C)C(=O)N[C@@H](CC(=O)O)C(=O)NCC(=O)NCC(=O)N1CCC[C@H]1C(=O)N[C@@H](CO)C(=O)N[C@@H](CO)C(=O)NCC(=O)N[C@@H](C)C(=O)N1CCC[C@H]1C(=O)N1CCC[C@H]1C(=O)N1CCC[C@H]1C(=O)N[C@@H](CO)C(N)=O` [Compound 22] (H-H[Aib]QGTFTSDK([PEG2-PEG2-γGlu-C18 diacid])SKYLD[Aib]RRAQDFVQWLLDGGPSSGAPPPS-NH2), on human GLP-1R, the EC50 came to 0.06 nM and the GLP-1R/GCGR was determined as 0.19. In addition, the clinical adverse effect entry in series [1] (IV or SC route, male CD1 mice) is listed as “no clinical adverse effect”. Besides, in series [1] (mouse, in vivo), the Tmax was around 12 h and the half-life was in the range of 4 to 6 h. Moreover, in the series with male C57B1/6J mice, the “AUC … compared with carrier (PBS)” value is “significantly decreased” and the “effect on oral glucose tolerance” value was “significantly reduced the oral glucose tolerance”.
For `CCCCCCCCCCCCCCCC(=O)N[C@@H](CCC(=O)NCCOCCOCCC(=O)NCCOCCOCCC(=O)NCCCC[C@H](NC(=O)[C@H](CC(=O)O)NC(=O)[C@H](CO)NC(=O)[C@@H](NC(=O)[C@H](Cc1ccccc1)NC(=O)[C@@H](NC(=O)CNC(=O)[C@H](CCC(N)=O)NC(=O)C(C)(C)NC(=O)[C@@H](N)Cc1c[nH]cn1)[C@@H](C)O)[C@@H](C)O)C(=O)N[C@@H](CO)C(=O)N[C@@H](CCCCN)C(=O)N[C@@H](Cc1ccc(O)cc1)C(=O)N[C@@H](CC(C)C)C(=O)N[C@@H](CC(=O)O)C(=O)NC(C)(C)C(=O)N[C@@H](CCCNC(=N)N)C(=O)N[C@@H](CCCNC(=N)N)C(=O)N[C@@H](C)C(=O)N[C@@H](CCC(N)=O)C(=O)N[C@@H](CC(=O)O)C(=O)N[C@@H](Cc1ccccc1)C(=O)N[C@H](C(=O)N[C@@H](CCC(N)=O)C(=O)N[C@@H](Cc1c[nH]c2ccccc12)C(=O)N[C@@H](CC(C)C)C(=O)N[C@@H](CC(C)C)C(=O)N[C@@H](CC(=O)O)C(=O)NCC(=O)NCC(=O)N1CCC[C@H]1C(=O)N[C@@H](CO)C(=O)N[C@@H](CO)C(=O)NCC(=O)N[C@@H](C)C(=O)N1CCC[C@H]1C(=O)N1CCC[C@H]1C(=O)N1CCC[C@H]1C(=O)N[C@@H](CO)C(N)=O)C(C)C)C(=O)O` [Compound 21], on human GLP-1R, the GLP-1R/GCGR came out at 0.23. Also, in series [1] (IV or SC route, male CD1 mice), the clinical adverse effect entry is “no clinical adverse effect”. Also, in series [1] (mouse, in vivo), the Tmax is around 12 h and the half-life was in the range of 4 to 6 h. Besides, in the series with male C57B1/6J mice, the “AUC … compared with carrier (PBS)” value is reported as “significantly decreased” and the “effect on oral glucose tolerance” value is reported as “significantly reduced the oral glucose tolerance”.
Regarding `CCCCCCCCCCCCCCCC(=O)N[C@@H](CCC(=O)NCCOCCOCCC(=O)NCCOCCOCCC(=O)NCCCC[C@H](NC(=O)[C@H](CC(=O)O)NC(=O)[C@H](CO)NC(=O)[C@@H](NC(=O)[C@H](Cc1ccccc1)NC(=O)[C@@H](NC(=O)CNC(=O)[C@H](CCC(N)=O)NC(=O)[C@@H](CO)NC(=O)[C@@H](N)Cc1c[nH]cn1)[C@@H](C)O)[C@@H](C)O)C(=O)N[C@@H](CO)C(=O)N[C@@H](CCCCN)C(=O)N[C@@H](Cc1ccc(O)cc1)C(=O)N[C@@H](CC(C)C)C(=O)N[C@@H](CC(=O)O)C(=O)NC(C)(C)C(=O)N[C@@H](CCCNC(=N)N)C(=O)N[C@@H](CCCNC(=N)N)C(=O)N[C@@H](C)C(=O)N[C@@H](CCC(N)=O)C(=O)N[C@@H](CC(=O)O)C(=O)N[C@@H](Cc1ccccc1)C(=O)N[C@H](C(=O)N[C@@H](CCC(N)=O)C(=O)N[C@@H](Cc1c[nH]c2ccccc12)C(=O)N[C@@H](CC(C)C)C(=O)N[C@@H](CCSC)C(=O)N[C@@H](CC(N)=O)C(=O)N[C@H](C(=O)NCC(=O)NCC(=O)N1CCC[C@H]1C(=O)N[C@@H](CO)C(=O)N[C@@H](CO)C(=O)NCC(=O)N[C@@H](C)C(=O)N1CCC[C@H]1C(=O)N1CCC[C@H]1C(=O)N1CCC[C@H]1C(=O)N[C@@H](CO)C(N)=O)[C@@H](C)O)C(C)C)C(=O)O` [Compound 7], in series [1] (mouse, in vivo), the clinical adverse effect result is recorded as “no clinical adverse effect”, the Tmax is around 12 h and the half-life fell in the range of 4 to 6 h. Further, the peak time result in series [1] (mouse, in vivo, sc) was “more than 12 hours”. Further, in the series with male C57B1/6J mice, the “AUC … compared with carrier (PBS)” value is listed as “significantly decreased” and the “effect on oral glucose tolerance” value is recorded as “significantly reduced the oral glucose tolerance”. The weight loss result in the series with DIO mice is “about 20%”. Further, the “body weight compared with normal saline group” value in the series with DIO mice (P<0.05) is “significantly lower”.
